Test system: KCHSC: kochia (Kochia scoparia)
Assay: Post-emergent Test III, herbicidal activity in wheat and barley
Format: in vivo
Settings: Bassia scoparia, post-emergence, 504 h; Table 8; 35 g ai/ha; post-emergent; 21 d; read-out: Visual Growth Reduction (%) 21 Days After Application KCHSC
Method: (§1) Post-emergent Test III. Seeds of the desired test plant species were planted in Sun Gro MetroMix® 306 planting mixture, which typically has a pH of 6.0 to 6.8 and an organic matter content of about 30 percent, in plastic pots with a surface area of 103.2 square centimeters (cm^2). When required to ensure good germination and healthy plants, a fungicide treatment and/or other chemical or physical treatment was applied. The plants were grown for 7-36 days (d) in a greenhouse with an approximate 14 hour (h) photoperiod which was maintained at about 18° C. during the day and 17° C. during the night. Nutrients and water were added on a regular basis and supplemental lighting was provided with overhead metal halide 1000-Watt lamps as necessary. The plants were employed for testing when they reached the second or third true leaf stage.
(§2) A weighed amount, determined by the highest rate to be tested, of each test compound was placed in a 25 mL glass vial and was dissolved in 4 mL of a 97:3 v/v mixture of acetone and DMSO to obtain concentrated stock solutions. […] The concentrated stock solutions obtained were diluted with 20 mL of an aqueous mixture containing acetone, water, isopropyl alcohol, DMSO, Agri-Dex crop oil concentrate, and X-77 surfactant in a 48:39:10:1.5:1.5:0.02 v/v ratio to obtain spray solutions containing the highest application rates. Additional application rates were obtained by serial dilution of 12 mL of the high rate solution into a solution containing 2 mL of 97:3 v/v mixture of acetone and DMSO and 10 mL of an aqueous mixture containing acetone, water, isopropyl alcohol, DMSO, Agri-Dex crop oil concentrate, and X-77 surfactant in a 48:39:10:1.5:1.5:0.02 v/v ratio to obtain ½×, ¼×, ⅛× and 1/16× rates of the high rate. Compound requirements are based upon a 12 mL application volume at a rate of 187 liters per hectare (L/ha). Formulated compounds were applied to the plant material with an overhead Mandel track sprayer equipped with 8002E nozzles calibrated to deliver 187 L/ha over an application area of 0.503 square meters at a spray height of 18 inches (43 cm) above the average plant canopy height. Control plants were sprayed in the same manner with the solvent blank.
(§3) The treated plants and control plants were placed in a greenhouse as described above and watered by subirrigation to prevent wash-off of the test compounds. After 21 d, the condition of the test plants as compared with that of the untreated plants was determined visually and scored on a scale of 0 to 100 percent where 0 corresponds to no injury and 100 corresponds to complete kill.
(§4) By applying the well-accepted probit analysis as described by J. Berkson in Journal of the American Statistical Society, 48, 565 (1953) and by D. Finney in “Probit Analysis” Cambridge University Press (1952), herbicidal injury of a specific compound at various rates can be used to calculate GR20, GR50, GR80 and GR90 values, which are defined as growth reduction factors that correspond to the effective dose of herbicide required to provide plant growth reduction (GR) of 20 percent, 50 percent, 80 percent and 90 percent, respectively. Probit analysis was applied to data collected from multiple dose rates of individual compounds utilizing the procedures explained in the following examples. The analysis of those dose rates is captured in the following tables.

Structure (SMILES)	pest or weed control at 35 g/ha [%]
COc1c(N)nc(-c2ccc(I)c(F)c2)nc1C(=O)O [Compound 37, 6-Amino-2-(3-fluoro-4-iodophenyl)-5-methoxypyrimidine-4-carboxylic acid]	45 to 59
Nc1c(Cl)c(C(=O)O)nc(-c2ccc(Br)c(F)c2)c1Cl [Compound 43, 4-Amino-6-(4-bromo-3-fluorophenyl)-3,5-dichloropicolinic acid]	60 to 74
COC(=O)c1nc(-c2ccc(I)c(F)c2)c(C)c(N)c1Cl [Compound 79, Methyl 4-amino-3-chloro-6-(3-fluoro-4-iodophenyl)-5-methylpicolinate]	60 to 74
Nc1cc(-c2ccc(I)cc2F)nc(C(=O)O)c1Cl [Compound 124]	85 to 94

Same assay, conditions: Bassia scoparia, post-emergence, 504 h; Table 8; 70 g ai/ha; post-emergent; 21 d; read-out: Visual Growth Reduction (%) 21 Days After Application KCHSC

Structure (SMILES)	pest or weed control at 70 g/ha [%]
COc1c(N)nc(-c2ccc(I)c(F)c2)nc1C(=O)O [Compound 37, 6-Amino-2-(3-fluoro-4-iodophenyl)-5-methoxypyrimidine-4-carboxylic acid]	60 to 74
Nc1c(Cl)c(C(=O)O)nc(-c2ccc(Br)c(F)c2)c1Cl [Compound 43, 4-Amino-6-(4-bromo-3-fluorophenyl)-3,5-dichloropicolinic acid]	85 to 94
COC(=O)c1nc(-c2ccc(I)c(F)c2)c(C)c(N)c1Cl [Compound 79, Methyl 4-amino-3-chloro-6-(3-fluoro-4-iodophenyl)-5-methylpicolinate]	75 to 84
Nc1cc(-c2ccc(I)cc2F)nc(C(=O)O)c1Cl [Compound 124]	85 to 94

Same assay, conditions: Table 8; dose for 50 percent growth reduction, probit analysis; 21 d

Structure (SMILES)	GR50 KCHSC [g ai/ha]
COc1c(N)nc(-c2ccc(I)c(F)c2)nc1C(=O)O [Compound 37, 6-Amino-2-(3-fluoro-4-iodophenyl)-5-methoxypyrimidine-4-carboxylic acid]	34
Nc1c(Cl)c(C(=O)O)nc(-c2ccc(Br)c(F)c2)c1Cl [Compound 43, 4-Amino-6-(4-bromo-3-fluorophenyl)-3,5-dichloropicolinic acid]	11
COC(=O)c1nc(-c2ccc(I)c(F)c2)c(C)c(N)c1Cl [Compound 79, Methyl 4-amino-3-chloro-6-(3-fluoro-4-iodophenyl)-5-methylpicolinate]	24
Nc1cc(-c2ccc(I)cc2F)nc(C(=O)O)c1Cl [Compound 124]	3

Same assay, conditions: Table 8; dose for 80 percent growth reduction, probit analysis; 21 d

Structure (SMILES)	GR80 KCHSC [g ai/ha]
COc1c(N)nc(-c2ccc(I)c(F)c2)nc1C(=O)O [Compound 37, 6-Amino-2-(3-fluoro-4-iodophenyl)-5-methoxypyrimidine-4-carboxylic acid]	119
Nc1c(Cl)c(C(=O)O)nc(-c2ccc(Br)c(F)c2)c1Cl [Compound 43, 4-Amino-6-(4-bromo-3-fluorophenyl)-3,5-dichloropicolinic acid]	41
COC(=O)c1nc(-c2ccc(I)c(F)c2)c(C)c(N)c1Cl [Compound 79, Methyl 4-amino-3-chloro-6-(3-fluoro-4-iodophenyl)-5-methylpicolinate]	70
Nc1cc(-c2ccc(I)cc2F)nc(C(=O)O)c1Cl [Compound 124]	29

Test system: HORSS: barley, including spring and winter (Hordeum vulgare)
Assay: as above
Format: in vivo
Settings: Hordeum vulgare, post-emergence, 504 h; Table 8; 35 g ai/ha; post-emergent; 21 d; read-out: Visual Growth Reduction (%) 21 Days After Application HORSS
Method: as §1, §2, §3, §4

Structure (SMILES)	pest or weed control at 35 g/ha [%]
COc1c(N)nc(-c2ccc(I)c(F)c2)nc1C(=O)O [Compound 37, 6-Amino-2-(3-fluoro-4-iodophenyl)-5-methoxypyrimidine-4-carboxylic acid]	60 to 74
Nc1c(Cl)c(C(=O)O)nc(-c2ccc(Br)c(F)c2)c1Cl [Compound 43, 4-Amino-6-(4-bromo-3-fluorophenyl)-3,5-dichloropicolinic acid]	95 to 100
COC(=O)c1nc(-c2ccc(I)c(F)c2)c(C)c(N)c1Cl [Compound 79, Methyl 4-amino-3-chloro-6-(3-fluoro-4-iodophenyl)-5-methylpicolinate]	85 to 94
Nc1cc(-c2ccc(I)cc2F)nc(C(=O)O)c1Cl [Compound 124]	85 to 94

Same assay, conditions: Hordeum vulgare, post-emergence, 504 h; Table 8; 70 g ai/ha; post-emergent; 21 d; read-out: Visual Growth Reduction (%) 21 Days After Application HORSS

Structure (SMILES)	pest or weed control at 70 g/ha [%]
COc1c(N)nc(-c2ccc(I)c(F)c2)nc1C(=O)O [Compound 37, 6-Amino-2-(3-fluoro-4-iodophenyl)-5-methoxypyrimidine-4-carboxylic acid]	75 to 84
Nc1c(Cl)c(C(=O)O)nc(-c2ccc(Br)c(F)c2)c1Cl [Compound 43, 4-Amino-6-(4-bromo-3-fluorophenyl)-3,5-dichloropicolinic acid]	95 to 100
COC(=O)c1nc(-c2ccc(I)c(F)c2)c(C)c(N)c1Cl [Compound 79, Methyl 4-amino-3-chloro-6-(3-fluoro-4-iodophenyl)-5-methylpicolinate]	85 to 94
Nc1cc(-c2ccc(I)cc2F)nc(C(=O)O)c1Cl [Compound 124]	95 to 100

Same assay, conditions: Table 8; dose for 20 percent growth reduction, probit analysis; 21 d

Structure (SMILES)	GR20 HORSS [g ai/ha]
COc1c(N)nc(-c2ccc(I)c(F)c2)nc1C(=O)O [Compound 37, 6-Amino-2-(3-fluoro-4-iodophenyl)-5-methoxypyrimidine-4-carboxylic acid]	5
Nc1c(Cl)c(C(=O)O)nc(-c2ccc(Br)c(F)c2)c1Cl [Compound 43, 4-Amino-6-(4-bromo-3-fluorophenyl)-3,5-dichloropicolinic acid]	1
COC(=O)c1nc(-c2ccc(I)c(F)c2)c(C)c(N)c1Cl [Compound 79, Methyl 4-amino-3-chloro-6-(3-fluoro-4-iodophenyl)-5-methylpicolinate]	1
Nc1cc(-c2ccc(I)cc2F)nc(C(=O)O)c1Cl [Compound 124]	1

Test system: TRZSS: wheat, including spring and winter (Triticum aestivum)
Assay: as above
Format: in vivo
Settings: Table 8; dose for 20 percent growth reduction, probit analysis; 21 d
Method: as §1, §2, §3, §4

Structure (SMILES)	GR20 TRZSS [g ai/ha]
COc1c(N)nc(-c2ccc(I)c(F)c2)nc1C(=O)O [Compound 37, 6-Amino-2-(3-fluoro-4-iodophenyl)-5-methoxypyrimidine-4-carboxylic acid]	3
Nc1c(Cl)c(C(=O)O)nc(-c2ccc(Br)c(F)c2)c1Cl [Compound 43, 4-Amino-6-(4-bromo-3-fluorophenyl)-3,5-dichloropicolinic acid]	1
COC(=O)c1nc(-c2ccc(I)c(F)c2)c(C)c(N)c1Cl [Compound 79, Methyl 4-amino-3-chloro-6-(3-fluoro-4-iodophenyl)-5-methylpicolinate]	2
Nc1cc(-c2ccc(I)cc2F)nc(C(=O)O)c1Cl [Compound 124]	1

Same assay, conditions: Triticum aestivum, post-emergence, 504 h; Table 8; 35 g ai/ha; post-emergent; 21 d; read-out: Visual Growth Reduction (%) 21 Days After Application TRZSS

Structure (SMILES)	pest or weed control at 35 g/ha [%]
COc1c(N)nc(-c2ccc(I)c(F)c2)nc1C(=O)O [Compound 37, 6-Amino-2-(3-fluoro-4-iodophenyl)-5-methoxypyrimidine-4-carboxylic acid]	75 to 84
Nc1c(Cl)c(C(=O)O)nc(-c2ccc(Br)c(F)c2)c1Cl [Compound 43, 4-Amino-6-(4-bromo-3-fluorophenyl)-3,5-dichloropicolinic acid]	85 to 94
COC(=O)c1nc(-c2ccc(I)c(F)c2)c(C)c(N)c1Cl [Compound 79, Methyl 4-amino-3-chloro-6-(3-fluoro-4-iodophenyl)-5-methylpicolinate]	75 to 84
Nc1cc(-c2ccc(I)cc2F)nc(C(=O)O)c1Cl [Compound 124]	85 to 94

Same assay, conditions: Triticum aestivum, post-emergence, 504 h; Table 8; 70 g ai/ha; post-emergent; 21 d; read-out: Visual Growth Reduction (%) 21 Days After Application TRZSS

Structure (SMILES)	pest or weed control at 70 g/ha [%]
COc1c(N)nc(-c2ccc(I)c(F)c2)nc1C(=O)O [Compound 37, 6-Amino-2-(3-fluoro-4-iodophenyl)-5-methoxypyrimidine-4-carboxylic acid]	85 to 94
Nc1c(Cl)c(C(=O)O)nc(-c2ccc(Br)c(F)c2)c1Cl [Compound 43, 4-Amino-6-(4-bromo-3-fluorophenyl)-3,5-dichloropicolinic acid]	95 to 100
COC(=O)c1nc(-c2ccc(I)c(F)c2)c(C)c(N)c1Cl [Compound 79, Methyl 4-amino-3-chloro-6-(3-fluoro-4-iodophenyl)-5-methylpicolinate]	85 to 94
Nc1cc(-c2ccc(I)cc2F)nc(C(=O)O)c1Cl [Compound 124]	85 to 94

Test system: MATSS: scented mayweed (Matricaria chamomilla), pineappleweed (Matricaria matricarioides)
Assay: as above
Format: in vivo
Settings: Matricaria chamomilla, post-emergence, 504 h; Table 8; 35 g ai/ha; post-emergent; 21 d; read-out: Visual Growth Reduction (%) 21 Days After Application MATSS
Method: as §1, §2, §3, §4

Structure (SMILES)	pest or weed control at 35 g/ha [%]
COc1c(N)nc(-c2ccc(I)c(F)c2)nc1C(=O)O [Compound 37, 6-Amino-2-(3-fluoro-4-iodophenyl)-5-methoxypyrimidine-4-carboxylic acid]	60 to 74
Nc1c(Cl)c(C(=O)O)nc(-c2ccc(Br)c(F)c2)c1Cl [Compound 43, 4-Amino-6-(4-bromo-3-fluorophenyl)-3,5-dichloropicolinic acid]	85 to 94
COC(=O)c1nc(-c2ccc(I)c(F)c2)c(C)c(N)c1Cl [Compound 79, Methyl 4-amino-3-chloro-6-(3-fluoro-4-iodophenyl)-5-methylpicolinate]	75 to 84
Nc1cc(-c2ccc(I)cc2F)nc(C(=O)O)c1Cl [Compound 124]	75 to 84

Same assay, conditions: Matricaria chamomilla, post-emergence, 504 h; Table 8; 70 g ai/ha; post-emergent; 21 d; read-out: Visual Growth Reduction (%) 21 Days After Application MATSS

Structure (SMILES)	pest or weed control at 70 g/ha [%]
COc1c(N)nc(-c2ccc(I)c(F)c2)nc1C(=O)O [Compound 37, 6-Amino-2-(3-fluoro-4-iodophenyl)-5-methoxypyrimidine-4-carboxylic acid]	60 to 74
Nc1c(Cl)c(C(=O)O)nc(-c2ccc(Br)c(F)c2)c1Cl [Compound 43, 4-Amino-6-(4-bromo-3-fluorophenyl)-3,5-dichloropicolinic acid]	95 to 100
COC(=O)c1nc(-c2ccc(I)c(F)c2)c(C)c(N)c1Cl [Compound 79, Methyl 4-amino-3-chloro-6-(3-fluoro-4-iodophenyl)-5-methylpicolinate]	85 to 94
Nc1cc(-c2ccc(I)cc2F)nc(C(=O)O)c1Cl [Compound 124]	85 to 94

Same assay, conditions: Table 8; dose for 50 percent growth reduction, probit analysis; 21 d

Structure (SMILES)	GR50 MATSS [g ai/ha]
COc1c(N)nc(-c2ccc(I)c(F)c2)nc1C(=O)O [Compound 37, 6-Amino-2-(3-fluoro-4-iodophenyl)-5-methoxypyrimidine-4-carboxylic acid]	21
Nc1c(Cl)c(C(=O)O)nc(-c2ccc(Br)c(F)c2)c1Cl [Compound 43, 4-Amino-6-(4-bromo-3-fluorophenyl)-3,5-dichloropicolinic acid]	3
COC(=O)c1nc(-c2ccc(I)c(F)c2)c(C)c(N)c1Cl [Compound 79, Methyl 4-amino-3-chloro-6-(3-fluoro-4-iodophenyl)-5-methylpicolinate]	13

Same assay, conditions: Table 8; dose for 80 percent growth reduction, probit analysis; 21 d

Structure (SMILES)	GR80 MATSS [g ai/ha]
COc1c(N)nc(-c2ccc(I)c(F)c2)nc1C(=O)O [Compound 37, 6-Amino-2-(3-fluoro-4-iodophenyl)-5-methoxypyrimidine-4-carboxylic acid]	77
Nc1c(Cl)c(C(=O)O)nc(-c2ccc(Br)c(F)c2)c1Cl [Compound 43, 4-Amino-6-(4-bromo-3-fluorophenyl)-3,5-dichloropicolinic acid]	7
COC(=O)c1nc(-c2ccc(I)c(F)c2)c(C)c(N)c1Cl [Compound 79, Methyl 4-amino-3-chloro-6-(3-fluoro-4-iodophenyl)-5-methylpicolinate]	46
Nc1cc(-c2ccc(I)cc2F)nc(C(=O)O)c1Cl [Compound 124]	32
